These are literature values, as cited in PMC9851200, “Multiparameter phenotypic screening for endogenous TFEB and TFE3 translocation identifies novel chemical series modulating lysosome function” (Autophagy, 2022).

Molecules are shown by their SMILES.

Design in all cases: method as in original PKIS2 published data
For series [1], the target named is kinases (KINOMEscan panel) (Homo sapiens, UniProt Q13554). The note with it: kinase CAMK2B; Published KINOMEscan; ref original PKIS2 published data; cited from earlier work.
In series [2] the target is kinases (KINOMEscan panel) (Homo sapiens, UniProt Q13627). The note with it: Published KINOMEscan; ref original PKIS2 published data; cited from earlier work.
The target of series [3] is T1, kinases (KINOMEscan panel) (Homo sapiens, UniProt P36888).
T1 sequence (P36888 27-993): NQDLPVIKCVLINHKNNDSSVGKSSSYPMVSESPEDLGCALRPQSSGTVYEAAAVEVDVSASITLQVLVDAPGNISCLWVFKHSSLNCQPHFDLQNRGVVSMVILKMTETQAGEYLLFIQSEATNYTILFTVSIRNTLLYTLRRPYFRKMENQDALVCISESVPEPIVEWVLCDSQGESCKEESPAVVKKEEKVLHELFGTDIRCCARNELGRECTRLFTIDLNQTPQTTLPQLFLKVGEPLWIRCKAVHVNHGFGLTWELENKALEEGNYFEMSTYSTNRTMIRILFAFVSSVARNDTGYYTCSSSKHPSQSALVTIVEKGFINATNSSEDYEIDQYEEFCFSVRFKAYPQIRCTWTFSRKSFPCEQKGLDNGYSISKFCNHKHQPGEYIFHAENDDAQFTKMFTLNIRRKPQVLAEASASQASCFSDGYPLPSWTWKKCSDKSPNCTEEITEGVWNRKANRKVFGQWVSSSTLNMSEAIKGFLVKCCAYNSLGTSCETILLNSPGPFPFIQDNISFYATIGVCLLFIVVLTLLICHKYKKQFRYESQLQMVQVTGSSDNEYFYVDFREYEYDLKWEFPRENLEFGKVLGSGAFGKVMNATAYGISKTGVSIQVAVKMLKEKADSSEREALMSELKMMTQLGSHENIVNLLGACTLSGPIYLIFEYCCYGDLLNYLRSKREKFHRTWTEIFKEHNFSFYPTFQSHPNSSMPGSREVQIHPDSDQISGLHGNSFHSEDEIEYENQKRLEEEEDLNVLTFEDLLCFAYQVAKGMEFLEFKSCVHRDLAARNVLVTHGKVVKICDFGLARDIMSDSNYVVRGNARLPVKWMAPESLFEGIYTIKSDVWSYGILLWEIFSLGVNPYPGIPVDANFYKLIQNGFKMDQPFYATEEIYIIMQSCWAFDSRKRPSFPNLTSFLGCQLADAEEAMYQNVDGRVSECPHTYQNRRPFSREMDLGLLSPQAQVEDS
The note with it: Published KINOMEscan, ref original PKIS2 published data, cited from earlier work.

Series [4] addresses kinases (KINOMEscan panel) (Homo sapiens, UniProt P08922). The note with it: kinase ROS1; Published KINOMEscan; ref original PKIS2 published data; cited from earlier work.
Series [5] concerns the target kinases (KINOMEscan panel) (Homo sapiens, UniProt Q86V86). The note with it: kinase PIM3; Published KINOMEscan; ref original PKIS2 published data; cited from earlier work.
In series [6] the target is T2, kinases (KINOMEscan panel) (Homo sapiens, UniProt Q02156).
T2 sequence (Q02156 1-737): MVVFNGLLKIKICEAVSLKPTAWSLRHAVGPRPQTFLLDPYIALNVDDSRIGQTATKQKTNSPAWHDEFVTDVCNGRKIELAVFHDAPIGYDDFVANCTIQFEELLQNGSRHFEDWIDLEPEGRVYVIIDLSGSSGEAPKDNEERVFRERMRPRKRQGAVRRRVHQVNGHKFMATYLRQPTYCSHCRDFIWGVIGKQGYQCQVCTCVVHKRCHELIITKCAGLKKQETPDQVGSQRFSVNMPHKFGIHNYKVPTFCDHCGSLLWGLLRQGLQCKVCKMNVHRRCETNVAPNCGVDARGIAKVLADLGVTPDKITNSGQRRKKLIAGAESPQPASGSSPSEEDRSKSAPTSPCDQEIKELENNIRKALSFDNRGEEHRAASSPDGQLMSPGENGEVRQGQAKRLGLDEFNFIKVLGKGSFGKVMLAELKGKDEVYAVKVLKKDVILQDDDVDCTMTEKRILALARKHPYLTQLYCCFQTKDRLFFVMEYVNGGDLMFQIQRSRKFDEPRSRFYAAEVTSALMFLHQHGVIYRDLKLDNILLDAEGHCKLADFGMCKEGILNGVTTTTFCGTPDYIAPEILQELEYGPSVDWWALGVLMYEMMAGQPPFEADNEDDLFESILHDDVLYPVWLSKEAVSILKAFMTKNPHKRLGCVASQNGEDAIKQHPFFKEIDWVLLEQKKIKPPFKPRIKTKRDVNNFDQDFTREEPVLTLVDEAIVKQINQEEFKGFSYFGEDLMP
The note with it: kinase PRKCE; Published KINOMEscan; ref original PKIS2 published data; cited from earlier work.

Series [7] concerns the target kinases (KINOMEscan panel) (Homo sapiens, UniProt P29317). The note with it: EPHA2; Published KINOMEscan; ref original PKIS2 published data; cited from earlier work.
The target in series [8] is kinases (KINOMEscan panel) (Homo sapiens, UniProt O43353). The note with it: RIPK2; Published KINOMEscan; ref original PKIS2 published data; cited from earlier work.
Series [9] has as its target kinases (KINOMEscan panel) (Homo sapiens, UniProt P08069). The note with it: kinase IGF1R; Published KINOMEscan; ref original PKIS2 published data; cited from earlier work.

kinases (KINOMEscan panel) (Homo sapiens, UniProt Q13554), sequence (Q13554 whole entry): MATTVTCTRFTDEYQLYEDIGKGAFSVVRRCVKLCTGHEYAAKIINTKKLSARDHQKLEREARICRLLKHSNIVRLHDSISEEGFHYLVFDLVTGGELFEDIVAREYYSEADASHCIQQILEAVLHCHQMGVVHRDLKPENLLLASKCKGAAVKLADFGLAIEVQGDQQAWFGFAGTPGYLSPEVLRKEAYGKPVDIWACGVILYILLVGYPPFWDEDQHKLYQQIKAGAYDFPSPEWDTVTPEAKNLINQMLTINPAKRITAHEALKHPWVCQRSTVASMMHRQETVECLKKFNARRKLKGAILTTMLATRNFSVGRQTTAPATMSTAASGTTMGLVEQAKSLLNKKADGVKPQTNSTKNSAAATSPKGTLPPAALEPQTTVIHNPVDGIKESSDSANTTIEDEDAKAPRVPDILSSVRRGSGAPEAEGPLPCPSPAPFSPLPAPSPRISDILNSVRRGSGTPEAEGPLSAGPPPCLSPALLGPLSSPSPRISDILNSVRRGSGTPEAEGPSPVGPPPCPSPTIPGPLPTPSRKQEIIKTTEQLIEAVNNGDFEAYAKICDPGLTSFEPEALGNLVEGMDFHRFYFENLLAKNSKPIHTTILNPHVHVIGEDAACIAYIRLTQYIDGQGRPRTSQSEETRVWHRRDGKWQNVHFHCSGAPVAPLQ
kinases (KINOMEscan panel) (Homo sapiens, UniProt P08922), sequence (P08922 28-2347): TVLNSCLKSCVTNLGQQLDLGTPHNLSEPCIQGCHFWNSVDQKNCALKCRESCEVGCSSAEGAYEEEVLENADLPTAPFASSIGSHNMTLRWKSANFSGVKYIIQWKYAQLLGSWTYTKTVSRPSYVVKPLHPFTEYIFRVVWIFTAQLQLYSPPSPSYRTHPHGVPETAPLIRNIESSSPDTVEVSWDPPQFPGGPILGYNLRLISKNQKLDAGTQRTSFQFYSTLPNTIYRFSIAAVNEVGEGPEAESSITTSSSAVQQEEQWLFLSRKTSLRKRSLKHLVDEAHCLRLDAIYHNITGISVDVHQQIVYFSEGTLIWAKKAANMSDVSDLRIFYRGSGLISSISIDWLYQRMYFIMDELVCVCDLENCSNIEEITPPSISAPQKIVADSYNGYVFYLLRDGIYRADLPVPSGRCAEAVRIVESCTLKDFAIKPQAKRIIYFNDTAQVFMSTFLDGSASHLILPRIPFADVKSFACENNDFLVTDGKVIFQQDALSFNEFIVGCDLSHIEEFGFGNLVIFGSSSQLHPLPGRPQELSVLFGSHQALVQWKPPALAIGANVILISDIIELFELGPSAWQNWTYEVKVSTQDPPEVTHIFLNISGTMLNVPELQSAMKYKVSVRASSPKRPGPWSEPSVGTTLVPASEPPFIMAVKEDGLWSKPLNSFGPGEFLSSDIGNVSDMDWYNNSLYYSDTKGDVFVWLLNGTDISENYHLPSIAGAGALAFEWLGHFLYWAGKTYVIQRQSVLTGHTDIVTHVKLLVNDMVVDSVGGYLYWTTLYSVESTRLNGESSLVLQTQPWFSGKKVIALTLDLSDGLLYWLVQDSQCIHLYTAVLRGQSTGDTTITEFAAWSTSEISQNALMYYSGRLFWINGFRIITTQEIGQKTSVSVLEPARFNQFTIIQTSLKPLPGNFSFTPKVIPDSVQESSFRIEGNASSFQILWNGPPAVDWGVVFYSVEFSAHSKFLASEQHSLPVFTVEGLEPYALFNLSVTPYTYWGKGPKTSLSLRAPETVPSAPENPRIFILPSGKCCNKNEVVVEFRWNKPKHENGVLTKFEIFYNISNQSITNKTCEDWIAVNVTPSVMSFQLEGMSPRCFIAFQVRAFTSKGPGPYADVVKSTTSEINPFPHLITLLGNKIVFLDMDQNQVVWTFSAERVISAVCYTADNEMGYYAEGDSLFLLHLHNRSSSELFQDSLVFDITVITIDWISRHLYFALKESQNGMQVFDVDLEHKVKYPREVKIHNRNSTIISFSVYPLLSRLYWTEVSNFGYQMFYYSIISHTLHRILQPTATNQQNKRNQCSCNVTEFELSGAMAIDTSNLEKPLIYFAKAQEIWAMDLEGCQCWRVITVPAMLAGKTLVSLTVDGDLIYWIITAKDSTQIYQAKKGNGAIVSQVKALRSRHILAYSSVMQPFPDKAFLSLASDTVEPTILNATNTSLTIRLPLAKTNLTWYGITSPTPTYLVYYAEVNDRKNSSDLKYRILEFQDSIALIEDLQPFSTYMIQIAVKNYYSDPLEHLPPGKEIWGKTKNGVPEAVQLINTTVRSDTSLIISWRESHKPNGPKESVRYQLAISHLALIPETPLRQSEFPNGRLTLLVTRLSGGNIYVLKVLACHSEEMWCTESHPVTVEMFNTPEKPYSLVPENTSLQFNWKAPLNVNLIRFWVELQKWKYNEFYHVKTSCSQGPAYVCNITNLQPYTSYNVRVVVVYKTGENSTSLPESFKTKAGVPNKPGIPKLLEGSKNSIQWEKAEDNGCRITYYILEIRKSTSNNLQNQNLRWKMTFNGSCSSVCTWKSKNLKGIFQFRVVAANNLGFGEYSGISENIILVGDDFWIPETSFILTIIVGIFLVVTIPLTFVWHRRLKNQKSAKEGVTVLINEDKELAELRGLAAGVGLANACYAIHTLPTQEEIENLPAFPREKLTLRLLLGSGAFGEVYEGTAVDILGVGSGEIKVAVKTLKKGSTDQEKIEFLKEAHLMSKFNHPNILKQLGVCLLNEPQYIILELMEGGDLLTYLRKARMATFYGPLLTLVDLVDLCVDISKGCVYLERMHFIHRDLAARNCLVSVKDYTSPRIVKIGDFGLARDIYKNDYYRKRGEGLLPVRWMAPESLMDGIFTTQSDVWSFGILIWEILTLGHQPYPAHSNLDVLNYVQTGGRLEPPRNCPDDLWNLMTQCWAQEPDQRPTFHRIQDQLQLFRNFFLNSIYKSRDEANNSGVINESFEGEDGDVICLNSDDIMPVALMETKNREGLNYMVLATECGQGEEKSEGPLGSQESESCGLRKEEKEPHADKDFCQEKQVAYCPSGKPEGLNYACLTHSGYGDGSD
kinases (KINOMEscan panel) (Homo sapiens, UniProt P08069), sequence (P08069 31-1367): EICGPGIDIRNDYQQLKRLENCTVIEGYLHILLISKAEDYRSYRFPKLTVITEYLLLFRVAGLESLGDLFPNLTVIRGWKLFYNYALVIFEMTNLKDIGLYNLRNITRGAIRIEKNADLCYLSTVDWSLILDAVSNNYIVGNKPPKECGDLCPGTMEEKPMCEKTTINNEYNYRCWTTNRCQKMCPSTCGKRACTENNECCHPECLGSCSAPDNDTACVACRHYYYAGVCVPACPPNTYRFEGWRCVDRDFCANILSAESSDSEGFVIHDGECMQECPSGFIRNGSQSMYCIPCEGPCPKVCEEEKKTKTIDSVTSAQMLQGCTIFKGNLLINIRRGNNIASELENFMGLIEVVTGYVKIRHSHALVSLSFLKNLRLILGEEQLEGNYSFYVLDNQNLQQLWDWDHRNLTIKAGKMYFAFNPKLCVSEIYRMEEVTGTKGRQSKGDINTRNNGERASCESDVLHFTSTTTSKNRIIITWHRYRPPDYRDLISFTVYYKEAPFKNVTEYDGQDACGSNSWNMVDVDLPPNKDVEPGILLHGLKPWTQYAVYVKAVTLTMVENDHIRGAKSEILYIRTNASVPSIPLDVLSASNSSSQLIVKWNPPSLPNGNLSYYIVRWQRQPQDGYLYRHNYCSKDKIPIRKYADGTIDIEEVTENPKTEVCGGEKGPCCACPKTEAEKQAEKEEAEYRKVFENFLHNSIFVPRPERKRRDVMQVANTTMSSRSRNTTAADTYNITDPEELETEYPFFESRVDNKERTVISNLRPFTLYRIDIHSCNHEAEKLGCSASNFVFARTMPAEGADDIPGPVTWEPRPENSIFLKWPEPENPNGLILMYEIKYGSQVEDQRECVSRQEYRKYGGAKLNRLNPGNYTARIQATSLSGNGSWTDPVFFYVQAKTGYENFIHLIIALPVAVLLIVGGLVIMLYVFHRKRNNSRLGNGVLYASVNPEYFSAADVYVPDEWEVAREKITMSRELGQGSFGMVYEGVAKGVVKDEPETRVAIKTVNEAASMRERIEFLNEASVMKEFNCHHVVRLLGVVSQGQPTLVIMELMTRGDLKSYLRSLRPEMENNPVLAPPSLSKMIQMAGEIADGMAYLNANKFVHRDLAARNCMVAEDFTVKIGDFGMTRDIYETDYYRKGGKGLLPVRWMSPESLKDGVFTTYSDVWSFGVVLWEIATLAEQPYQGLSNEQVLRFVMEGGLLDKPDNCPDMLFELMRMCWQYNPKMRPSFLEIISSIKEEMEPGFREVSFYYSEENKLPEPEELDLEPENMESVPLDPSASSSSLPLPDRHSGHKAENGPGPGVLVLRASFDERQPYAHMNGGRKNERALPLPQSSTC

As to `Cc1cccc(-c2nc(Nc3ccncc3)c3ccccc3n2)n1` [NK215], in series [1], the “KINOMEscan CAMK2B” value was 0. The “KINOMEscan DYRK1A” value in series [2] was 0. For the same compound, the “KINOMEscan FLT3” value in series [3] (FLT3) is given as 0. Moreover, the “KINOMEscan FLT3-autoinhibited” value in series [3] (kinase FLT3-autoinhibited) is on record as 0. The “KINOMEscan ROS1” value in [4] is reported as 0. Further, in series [5], the “KINOMEscan PIM3” value was 0. In addition, the “KINOMEscan PRKCE” value in series [6] is recorded as 0. The “KINOMEscan EPHA2” value in series [7] is reported as 18. Also, in [8], the “KINOMEscan RIPK2” value is listed as 71. Further, in series [9], the “KINOMEscan IGF1R” value is listed as 0.
